Results on three molecules are retold here after publication PMC2774495 (Cancer chemotherapy and pharmacology, 2009).

Structures are written as SMILES. Like-named read-outs stand apart in the source and are kept apart here.

The Ki is a measure of affinity in units of concentration, obtained from inhibition or displacement. A word on the inhibition: it is the share of the control response that was lost under treatment. A lower inhibition goes with little suppression. One may read the IC50 as the concentration that inhibits the measured activity by half. A high value points to lower potency.

One data set relates to 2C9. The note with it: read-out: Ki for inhibition of CYP2C9; in vitro; cited from earlier work.
The test system of the next data set is CYP1A2. The note with it: read-out: Ki for inhibition of CYP1A2; in vitro; cited from earlier work.
The target in another data set is T1, expressed CYP2B6 (Homo sapiens, UniProt P20813).
T1 sequence (P20813 1-491): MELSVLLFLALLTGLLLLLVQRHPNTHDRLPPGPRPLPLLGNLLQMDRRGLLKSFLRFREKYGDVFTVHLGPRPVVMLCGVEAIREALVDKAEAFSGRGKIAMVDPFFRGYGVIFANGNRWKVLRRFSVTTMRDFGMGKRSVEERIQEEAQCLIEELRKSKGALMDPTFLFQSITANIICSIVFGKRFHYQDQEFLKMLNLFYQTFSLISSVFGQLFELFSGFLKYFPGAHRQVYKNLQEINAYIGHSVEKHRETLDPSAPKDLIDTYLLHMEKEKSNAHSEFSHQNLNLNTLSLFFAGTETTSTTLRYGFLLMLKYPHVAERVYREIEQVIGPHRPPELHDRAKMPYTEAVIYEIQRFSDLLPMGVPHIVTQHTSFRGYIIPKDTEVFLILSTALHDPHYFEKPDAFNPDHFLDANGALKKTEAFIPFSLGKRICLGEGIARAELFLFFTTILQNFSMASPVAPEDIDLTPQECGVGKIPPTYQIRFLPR
Kind of data set: Inhibition of expressed CYP2B6. The note with it: read-out: Ki values, expressed CYP2B6; expressed CYP2B6 52 pmol/ml, efavirenz 10–75 μM, mean ± SE, competitive model. It is filed as biochemical.

Data set [1] has as its target T2, expressed CYP2C19 (Homo sapiens, UniProt P33261). The following applies: read-out: Ki values, expressed CYP2C19; expressed 2C19 52 pmol/ml, S-mephenytoin 10–75 μM, mean ± SE, competitive model.
Data set [2] deals with T3, CYP2A6 (Homo sapiens, UniProt P11509).
T3 sequence (P11509 1-494): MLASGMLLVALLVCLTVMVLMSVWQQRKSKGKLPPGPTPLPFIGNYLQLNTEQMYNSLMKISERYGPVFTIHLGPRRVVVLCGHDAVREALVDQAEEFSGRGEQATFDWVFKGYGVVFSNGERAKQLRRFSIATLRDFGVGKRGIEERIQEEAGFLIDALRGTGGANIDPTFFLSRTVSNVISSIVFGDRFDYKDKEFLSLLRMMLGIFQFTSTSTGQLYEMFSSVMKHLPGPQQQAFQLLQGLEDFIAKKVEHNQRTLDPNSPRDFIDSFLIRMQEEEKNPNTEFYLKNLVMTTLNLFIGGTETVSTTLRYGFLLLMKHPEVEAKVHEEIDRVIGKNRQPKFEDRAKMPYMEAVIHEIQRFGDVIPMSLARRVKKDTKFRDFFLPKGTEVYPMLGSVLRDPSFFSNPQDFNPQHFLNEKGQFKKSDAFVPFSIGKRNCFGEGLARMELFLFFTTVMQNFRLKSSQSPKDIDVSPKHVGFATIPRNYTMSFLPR
Put plainly: Inhibition of CYP2A6.

The target of data set [3] is T4, CYP2C19 (Homo sapiens, UniProt P33261).
T4 sequence (P33261 whole entry): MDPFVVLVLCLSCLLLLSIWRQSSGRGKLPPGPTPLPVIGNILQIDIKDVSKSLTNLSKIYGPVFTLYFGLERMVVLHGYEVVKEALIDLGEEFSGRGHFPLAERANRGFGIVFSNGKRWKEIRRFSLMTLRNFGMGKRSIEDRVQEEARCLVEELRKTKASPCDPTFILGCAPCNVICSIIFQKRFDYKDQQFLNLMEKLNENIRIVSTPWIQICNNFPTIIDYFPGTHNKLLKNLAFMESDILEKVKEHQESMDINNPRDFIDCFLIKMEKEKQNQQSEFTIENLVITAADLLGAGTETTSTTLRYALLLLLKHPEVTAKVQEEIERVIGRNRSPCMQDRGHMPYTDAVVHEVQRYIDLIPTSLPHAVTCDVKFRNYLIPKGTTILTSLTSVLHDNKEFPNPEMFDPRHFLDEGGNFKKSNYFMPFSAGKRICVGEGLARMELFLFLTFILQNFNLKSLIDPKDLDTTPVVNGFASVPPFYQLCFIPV
Data set [4] has as its target T5, CYP2B6 (Homo sapiens, UniProt P20813).
T5 sequence (P20813 1-491): T1 sequence (P20813 1-491)
Put plainly: Inhibition of CYP2B6.

For data set [5] the following is noted: cited from earlier work.
The target in data set [6] is T5, CYP2B6. Kind of data set: in vitro. The following applies: microsomes, pH 7.4.
A further data set addresses CYP2D6 (Homo sapiens, UniProt P10635). Put plainly: in vitro. The following applies: microsomes, pH 7.4.
Data set [7] addresses T2, expressed CYP2C19. Kind of data set: biochemical.
For another data set, the target named is T6, expressed CYP2A6 (Homo sapiens, UniProt P11509).
T6 sequence (P11509 1-494): T3 sequence (P11509 1-494)
Put plainly: Inhibition of expressed CYP2A6. Type of data set: biochemical.

The target of the next data set is CYP2C9 (Homo sapiens, UniProt P11712). Kind of data set: in vitro. The note with it: microsomes, pH 7.4.
Sequence of CYP2C9 (P11712 whole entry): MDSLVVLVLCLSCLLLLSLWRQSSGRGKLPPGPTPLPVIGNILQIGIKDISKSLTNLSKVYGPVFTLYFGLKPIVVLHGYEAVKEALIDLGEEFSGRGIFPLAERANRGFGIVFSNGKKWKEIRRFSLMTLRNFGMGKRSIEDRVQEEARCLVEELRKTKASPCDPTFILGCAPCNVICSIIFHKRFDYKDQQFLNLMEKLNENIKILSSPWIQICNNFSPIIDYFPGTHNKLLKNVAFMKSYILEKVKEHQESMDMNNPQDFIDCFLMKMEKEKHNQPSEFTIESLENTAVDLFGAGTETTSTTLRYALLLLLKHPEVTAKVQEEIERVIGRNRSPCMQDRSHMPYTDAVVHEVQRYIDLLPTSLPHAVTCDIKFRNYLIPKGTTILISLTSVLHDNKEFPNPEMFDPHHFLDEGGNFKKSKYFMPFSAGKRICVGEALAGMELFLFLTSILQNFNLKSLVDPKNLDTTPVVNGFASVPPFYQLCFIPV
The conditions of data set [8]: cited from earlier work. The source holds these as a separate data set.
The target of data set [9] is T3, CYP2A6. Kind of data set: Prediction of in vivo AUC change of CYP2A6 substrates from in vitro Ki. The following applies: for AUCI/AUCUI ratio expected in vivo, CYP2A6, free letrozole: unbound letrozole (fu 0.2–0.4).
The conditions of data set [10]: cited from earlier work. The source holds these as a separate data set.
Data set [11] deals with T3, CYP2A6. Kind of data set: in vitro. The following applies: microsomes, pH 7.4.
A further data set has as its system CYP3A. Put plainly: Inhibition of CYP3A. Type of data set: biochemical. The note with it: human, human liver microsomes, pH 7.4, probe midazolam 10 μM (1′-hydroxylation). (Liver microsomes are vesicles of endoplasmic reticulum, rich in cytochrome P450 enzymes.)
A further data set relates to CYP isoforms. Kind of data set: Assessment of time-dependent inactivation. It is filed as biochemical, human. The note with it: preincubation 0 and 15 min with HLM and cofactors, data not shown.
Another data set has as its system CYP2C8. Kind of data set: Inhibition of CYP2C8. Type of data set: biochemical. The following applies: human, human liver microsomes, pH 7.4, probe amodiaquine 5 μM (desethylation).
The target in data set [12] is T4, CYP2C19. Kind of data set: biochemical.
The conditions of data set [13]: rat liver tissues; cited from earlier work.

T2 sequence (P33261 whole entry): as the sequence (P33261 whole entry) above
Sequence of CYP2D6 (P10635 whole entry): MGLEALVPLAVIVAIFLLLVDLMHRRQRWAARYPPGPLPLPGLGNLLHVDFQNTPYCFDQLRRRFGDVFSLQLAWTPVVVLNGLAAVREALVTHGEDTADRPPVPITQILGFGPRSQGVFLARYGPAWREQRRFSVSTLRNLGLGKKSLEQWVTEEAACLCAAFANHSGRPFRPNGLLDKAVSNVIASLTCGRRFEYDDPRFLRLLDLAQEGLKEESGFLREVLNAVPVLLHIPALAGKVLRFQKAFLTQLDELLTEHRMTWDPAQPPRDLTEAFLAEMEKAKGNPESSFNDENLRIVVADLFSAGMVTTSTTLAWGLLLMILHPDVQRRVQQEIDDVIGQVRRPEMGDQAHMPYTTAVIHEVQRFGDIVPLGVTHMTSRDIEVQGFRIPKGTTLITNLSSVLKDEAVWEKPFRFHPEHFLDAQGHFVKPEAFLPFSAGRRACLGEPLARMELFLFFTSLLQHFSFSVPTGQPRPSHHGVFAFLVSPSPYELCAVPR

As for `CC(C)(C#N)c1cc(Cn2cncn2)cc(C(C)(C)C#N)c1` [anastrozole], the Ki in the data set with 2C9 and in the data set with CYP1A2 was 8 to 10 µM in each case.

For the molecule `N#Cc1ccc(C(O)c2ccc(C#N)cc2)cc1` [letrozole metabolite, 4,4′-methanol-bisbenzonitrile], the inhibitory constant (Ki) on expressed CYP2B6 stood at 40.4 ± 14.6 µM; at expressed CYP2C19 [1], 4.5 ± 0.7 µM; at CYP2C19 [3] (read-out: Ki values, CYP2C19, HLMs, HLMs (SD-101) 0.5 mg/ml, S-mephenytoin 10–75 μM, mean ± SE, competitive model), 19.5 ± 0.5 µM; at CYP2B6 [4] (read-out: Ki values, CYP2B6, HLMs, HLMs (HL-091499) 0.5 mg/ml, efavirenz 10–75 μM, mean ± SE, competitive model), 12.9 ± 3.8 µM. On CYP2A6 [2] (HLMs, 0–100 μM), the “Effect on CYP2A6 activity” value is given as “lack of any effect”. Moreover, at CYP2C19 [3] (Dixon plots and enzyme inhibition models, HLMs and expressed CYP2C19), the “Mode of inhibition of CYP2C19” value is “competitive”. At CYP2B6 [4] (Dixon plots and enzyme inhibition models, HLMs and expressed CYP2B6), the “Mode of inhibition of CYP2B6” value is reported as “competitive”. In addition, the “Fraction of letrozole dose accounted for by the metabolite” value in data set [5] (human) is listed as “over 60%”.

Take `N#Cc1ccc(C(c2ccc(C#N)cc2)n2cncn2)cc1` [letrozole, 4,4′-[(1H-1,2,4-triazol-1-yl)methylene] bis-benzonitrile]: at CYP2B6 [6], the inhibition at 10 min, 100 μM is less than 20%. Besides, the inhibition at 30 min, 100 μM at CYP2D6 is less than 20%. Moreover, the IC50 against expressed CYP2C19 [7] was 62.9 µM; on expressed CYP2A6 it was 12.5 µM; on CYP2A6 [2], 5.9 µM; on CYP2C19 [12] it was 24.8 µM. Moreover, the Ki at expressed CYP2C19 [7] (Ki values, expressed CYP2C19, expressed 2C19 52 pmol/ml, S-mephenytoin 10–75 μM, mean ± SE, competitive model) was 33.3 µM; on expressed CYP2A6, 5 ± 2.4 µM; at CYP2C19 [12] it was 42.2 ± 3.8 µM. The “Mode of inhibition of CYP2A6” value at CYP2A6 [2] (Dixon plots and enzyme inhibition models, HLMs and expressed CYP2A6) is “competitive”. At CYP2C9, this molecule came in with an inhibition at 60 min, 100 μM of less than 20%. In addition, the “Fold Ki for CYP2C19 above therapeutic plasma concentrations of letrozole” value on CYP2C19 [3] (human) is given as “over 40 fold”. The “Mode of inhibition of CYP2C19” value at CYP2C19 [3] (microsomes) is reported as “competitive”. Moreover, the Plasma protein binding in data set [8] was 60%. The “AUCI/AUCUI ratio expected in vivo, CYP2A6, total letrozole” value at CYP2A6 [9] (letrozole plasma concentration 0.5–1 μM (bound + unbound), Ki from HLMs) is on record as 1.11–1.22. The “Predicted increase in exposure of CYP2A6 substrates (maximum)” value at CYP2A6 [9] (predicted from in vitro Ki) is listed as 11–22%. Moreover, the “AUCI/AUCUI ratio expected in vivo, CYP2A6, free letrozole” value was “close to unity” at CYP2A6 [9] (Ki from HLMs) and 1.04–1.09 on CYP2A6 [9] (Ki from HLMs, listed as Letrozole). Moreover, the “Effect on the pharmacokinetics of known CYP substrates including warfarin, diazepam, and tamoxifen” value in data set [10] is given as “lack of letrozole's effect”. Besides, the affinity at CYP2A6 [11], expressed as Ki at 15 min, was 4.6 ± 0.1 µM. In the data set on CYP3A, the inhibition at 5 min, 100 μM was less than 20%. The “Time dependence of inhibition of CYPs” value in the data set with CYP isoforms was “not time dependent”. Further, the Absolute bioavailability in [5] is recorded as 99.9%. Also, in data set [5], the “Exposure at steady state higher than at a single dose” value is given as 28%. In data set [5] (following 14C-labeled letrozole (2.5 mg)), the “Radioactivity in plasma accounted by unchanged drug” value is “Approximately 82%”. Also, the Cmax in data set [5] (read-out: Average maximum plasma concentration (Cmax) at steady state, women with breast cancer, 2.5 mg/day) was approximately 500 nM. Moreover, in the data set with CYP2C8, the inhibition at 15 min, 100 μM was less than 20%. For the same molecule, the “Liver tissue concentration relative to plasma” value in data set [13] is reported as “> sevenfold”.
